This is an account of results in patent publication US7326700B2, “Cyclohexenyl phenyl carboxamides tocolytic oxytocin receptor antagonists” (Wyeth, priority 2001, dated 2008).

The structures appear in SMILES notation. Where a name gives a salt, the structure may show the parent alone. Where only a bound is given, the exact number is not on record here.

T1 sequence (P30518 whole entry): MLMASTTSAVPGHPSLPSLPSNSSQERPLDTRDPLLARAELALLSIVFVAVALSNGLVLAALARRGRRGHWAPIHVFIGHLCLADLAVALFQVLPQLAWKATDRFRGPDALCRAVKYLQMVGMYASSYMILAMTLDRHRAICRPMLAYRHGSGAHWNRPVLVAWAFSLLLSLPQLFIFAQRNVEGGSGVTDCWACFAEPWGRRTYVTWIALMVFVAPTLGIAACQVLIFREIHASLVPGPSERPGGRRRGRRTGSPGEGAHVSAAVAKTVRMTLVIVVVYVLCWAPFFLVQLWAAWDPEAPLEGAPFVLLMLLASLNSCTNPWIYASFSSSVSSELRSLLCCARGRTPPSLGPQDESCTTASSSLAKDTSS

The first experiment has as its target T1, human vasopressin V2 receptor subtype (Homo sapiens, UniProt P30518).
T1 construct: host or cells: CHO cells, stably transfected (pZeoSV vector)
Nature of the experiment: Vasopressin binding in CHO cell membranes expressing human vasopressin V2 subtype receptors ([3H]arginine vasopressin radioligand binding). The settings on record: 100 nM. From the text:
Chinese Hamster Ovary (CHO) cells stably transfected with the human V2 subtype receptors were obtained from M. Thibonnier, Case Western Reserve University School of Medicine, Cleveland, Ohio.
CHO cells transfected with the human vasopressin V2 subtype receptors obtained from M. Thibonnier (pZeoSV vector) are allowed to grow to confluency (approx. >90%) in T-150 flasks under sterile conditions, in a cell culture medium consisting of F-12 Nutrient Mixture (HAM) with L-glutamine (Gibco Cat. #11765-054) containing 15 mM HEPES (Gibco Cat. #15630-080), 1% antibiotic/antimycotic (add 5 mL 100×, Gibco Cat. #15240-062 per 500 mL F-12), 250 μg/mL Zeocin (add 1.25 mL of 100 mg/mL Invitrogen R-250-01 per 500 mL F-12) and 10% Fetal Bovine Serum (Qualified, heat inactivated, Gibco Cat. #16140-063). The medium is removed by aspiration and the cells washed with 10 mL of Hank's Balanced Salt solution (Gibco Cat. #14175-095). The salt solution is removed by aspiration and the cells trypsinized with 5 mL of trypsin-EDTA (0.05% trypsin, 0.53 mM EDTA-4Na, Gibco Cat. #25300-070) for 1 min. The trypsin is removed by aspiration and the cells dislodged by tapping. Cell Culture medium (e.g. 30 mL for 1:30 split) is immediately added and mixed well to inactivate trypsin. 1 mL of detached cells is added to new culture flasks containing fresh Cell Culture medium (e.g. into 25 mL per T-150 flask), and mixed gently. The cells are incubated at 37° C. in 5% CO2. The medium is changed at 3 to 4 day interval (or as appropriate). The cells grow to confluency (approx. >75%-95%) within 7-8 days. All steps are done under sterile conditions.
The cells are washed twice gently with Hank's Balanced Salt solution (e.g. use 10 mL per T-150 flask). The excess solution is removed and the cells bathed for 15-30 min. in an enzyme-free Cell Dissociation Buffer (e.g. use 8 mL Hank's Based, Gibco Cat. #13150-016 per T-150 flask) until cells are loosened. The contents are transferred to centrifuge tubes (50 mL) kept in an ice bath. All subsequent steps are done at 4° C. The tubes are centrifuged at 300×g for 15 min (1380 rpm on SORVAL, Model RT6000D, using the rotor for 50 mL tubes). The supernatant is discarded and the cells suspended in homogeneizing buffer(10 mM Tris-HCl containing 0.25 M sucrose and 1 mM EDTA, pH 7.4) ensuring that the volume of the buffer is about ten times the volume of the cell pellet. The cells are pooled into a centrifuge tube (50 mL) and homogenized with Polytron at setting 6 for 10 sec. The homogenate is transferred into a Potter-Elvjehm homogeneizer and homogenized with 3 strokes. The homogenate is centrifuged at 1500×g for 60 min at 4° C. (3100 rpm using SORVAL, model RT6000D, using the rotor for 50 mL tubes). The pellet is discarded. The supernatant is centrifuged at 100,000×g for 60 min. at 4° C. (Beckman L8-80M ultracentrifuge; spin at 37,500 rpm with rotor type 70 Ti for 50 mL tubes; 38,000 rpm with type 80 Ti for 15 mL tubes; or 35,800 rpm with rotor type 45Ti). The supernantant is discarded and the pellet suspended in 3 to 4 mL of Tris buffer (50 mM TRIS-HCl, pH 7.4). The protein content is estimated by the Bradford or Lowry method. The volume of the membrane suspension is adjusted with the membrane buffer (50 mM Tris-HCl containing 0.1% BSA and 0.1 mM PMSF) to give 3.0 mg/mL (or as appropriate) of protein. The membranes are aliquoted and stored at −70° C.
In wells of a 96-well format microtiter plate, is added 90, 110 or 130 μL (to make up a final volume of 200 μL) of assay buffer containing 50 mM of Tris-HCl (pH 7.4), […], 1 mg % aprotinin, 1 mg % leupeptin, 2 mg % 1,10-phenanthroline, 10 mg % trypsin inhibitor, and 0.1 mM PMSF. The inhibitors are added on the day of the experiment. The components are mixed at room temperature, and then kept in ice bath following adjustment of the pH to 7.4. […]
The term inhibition denotes the drop in the measured response relative to a control, in per cent. `COc1cc(C2=CCCCC2)c(Cl)cc1C(=O)N1Cc2ccc(C(=O)N(C)CCCN(C)C)n2Cc2ccccc21` [Example 2, 10-(5-Chloro-4-cyclohex-1-en-1-yl-2-methoxybenzoyl)-N-[3-(dimethylamino)propyl]-N-methyl-10,11-dihydro-5H-pyrrolo[2,1-c][1,4]benzodiazepine-3-carboxamide]: the inhibition at 0.1 µM stood at 4%. Same read-out and setting: the result for `Cc1cc(C(=O)N2Cc3ccc(C(=O)N4CCN(C)CC4)n3Cc3ccccc32)ccc1C1=CCCCC1` [Example 4, [10-(4-Cyclohex-1-en-1-yl-3-methyl-benzoyl)-10,11-dihydro-5H-pyrrolo[2,1-c][1,4]benzodiazepin-3-yl]-(4-methyl-piperazin-1-yl)-methanone] reads 11%.

In the case of `Cc1cc(C(=O)N2Cc3ccc(C(=O)N4CCN(CCCN(C)C)CC4)n3Cc3ccccc32)ccc1C1=CCCCC1` [Example 5, [10-(4-Cyclohex-1-en-1-yl-3-methyl-benzoyl)-10,11-dihydro-5H-pyrrolo[2,1-c][1,4]benzodiazepin-3-yl]-[4-(3-dimethylamino-propyl)-piperazin-1-yl]-methanone], the inhibition at 0.1 µM came to 19%. Still for that read-out and setting: in the case of `Cc1cc(C(=O)N2Cc3ccc(C(=O)N4CCN(C)CC4)n3Cc3ccccc32)ccc1C1=CCCc2ccccc21` [Example 6, {10-[4-(3,4-Dihydro-naphthalen-1-yl)-3-methyl-benzoyl]-10,11-dihydro-5H-benzo[e]pyrrolo[1,2-a][1,4]diazepin-3-yl}-(4-methyl-piperazin-1-yl)-methanone] it was 17%; in that of `Cc1cc(C(=O)N2Cc3ccc(C(=O)N4CCN(CCCN(C)C)CC4)n3Cc3ccccc32)ccc1C1=CCCc2ccccc21` [Example 7, {10-[4-(3,4-Dihydro-naphthalen-1-yl)-3-methyl-benzoyl]-10,11-dihydro-5H-pyrrolo[2,1-c][1,4]benzodiazepin-3-yl}-[4-(3-dimethylamino-propyl)-piperazin-1-yl]-methanone], 30%. On the same count and under the same terms, the result for `CC1=C(c2ccc(C(=O)N3Cc4ccc(C(=O)N5CCN(C)CC5)n4Cc4ccccc43)cc2C)CCCC1O` (stereo not drawn) [Example 10, [4-(3-Hydroxy-2-methyl-cyclohex-1-en-1-yl)-3-methyl-phenyl]-[3-(4-methyl-piperazine-1carbonyl)-10,11-dihydro-5H-pyrrolo[2,1-c][1,4]benzodiazepin-10-yl]-methanone] reads -8%; that for `CC1=C(c2ccc(C(=O)N3Cc4ccc(C(=O)N5CCN(C)CC5)n4Cc4ccccc43)cc2C)CCC[C@H]1O` [Example 11, [4-((3R)-3-Hydroxy-2-methyl-cyclohex-1-en-1-yl)-3-methyl-phenyl]-[3-(4-methyl-piperazine-1-carbonyl)-10,11-dihydro-5H-pyrrolo [2,1-c][1,4]benzodiazepin-10-yl]-methanone], 14%. On to `Cc1cc(C(=O)N2Cc3ccc(C(=O)N4CCCN(C)CC4)n3Cc3ccccc32)ccc1C1=CCCCC1` [Example 13, {10-[4-(1-Cyclohex-1-en-1-yl)-3-methylbenzoyl]-10,11-dihydro-5H-pyrrolo[2,1-c][1,4]benzodiazepin-3-yl}(4-methyl-1,4-diazepan-1-yl)methanone], for which the “V2 % inhibition @ 100 nM” value was 3%. The same measure, in the same setting: in the case of `Cc1cc(C(=O)N2Cc3ccc(C(=O)NCCCN(C)C)n3Cc3ccccc32)ccc1C1=CCCCC1` [Example 14, 10-[4-(1-Cyclohex-1-en-1-yl)-3-methylbenzoyl]-N-[3-(dimethylamino)propyl]-10,11-dihydro-5H-pyrrolo[2,1-c][1,4]benzodiazepine-3-carboxamide] it was 5%. Same read-out and setting: the result for `Cc1cc(C(=O)N2Cc3ccc(C(=O)N(C)CCN(C)C)n3Cc3ccccc32)ccc1C1=CCCCC1` [Example 15, 10-[4-(1-Cyclohex-1-en-1-yl)-3-methylbenzoyl]-N-[2-(dimethylamino)ethyl]-N-methyl-10,11-dihydro-5H-pyrrolo[2,1-c][1,4]benzodiazepine-3-carboxamide] reads 5%; that for `Cc1cc(C(=O)N2Cc3ccc(C(=O)N(C)CCCN(C)C)n3Cc3ccccc32)ccc1C1=CCCCC1` [Example 16, 10-[4-(1-Cyclohex-1-en-1-yl)-3-methylbenzoyl]-N-[3-(dimethylamino)propyl]-N-methyl-10,11-dihydro-5H-pyrrolo[2,1-c][1 ,4]benzodiazepine-3-carboxamide], 10%; that for `Cc1cc(C(=O)N2Cc3ccc(C(=O)N4CCC(N5CCCCC5)CC4)n3Cc3ccccc32)ccc1C1=CCCCC1` [Example 17, {10-[4-(1-Cyclohex-1-en-1-yl)-3-methylbenzoyl]-10,11-dihydro-5H-pyrrolo[2,1-c][1,4]benzodiazepin-3-yl}[4-(1-piperidinyl)-1-piperidinyl]methanone], 2%. On the same count and under the same terms, the result for `Cc1cc(C(=O)N2Cc3ccc(C(=O)NCCCn4ccnc4)n3Cc3ccccc32)ccc1C1=CCCCC1` [Example 18, 10-[4-(1-Cyclohex-1-en-1-yl)-3-methylbenzoyl]-N-[3-(1H-imidazol-1-yl)propyl]10,11-dihydro-5H-pyrrolo[2,1-c][1,4]benzodiazepine-3-carboxamide] reads 20%; that for `Cc1cc(C(=O)N2Cc3ccc(C(=O)N4CCC(N5CCCC5)CC4)n3Cc3ccccc32)ccc1C1=CCCCC1` [Example 19, {10-[4-(1-Cyclohex-1-en-1-yl)-3-methylbenzoyl]-10,11-dihydro-5H-pyrrolo[2,1c][1,4]benzodiazepin-3-yl}[4-(1-pyrrolidinyl)-1-piperidinyl]methanone], 18%.

Consider `Cc1cc(C(=O)N2Cc3ccc(C(=O)NCCN4CCCCC4)n3Cc3ccccc32)ccc1C1=CCCCC1` [Example 20, 10-[4-(1-Cyclohex-1-en-1-yl)-3-methylbenzoyl]-N-[2-(1-piperidinyl)ethyl]-10,11-dihydro-5H-pyrrolo[2,1-c][1,4]benzodiazepine-3-carboxamide], for which the “V2 % inhibition @ 100 nM” value was 14%.

In the case of `Cc1cc(C(=O)N2Cc3ccc(C(=O)NCCC4CCCN4C)n3Cc3ccccc32)ccc1C1=CCCCC1` (stereo not drawn) [Example 21, 10-[4-(1-Cyclohex-1-en-1-yl)-3-methylbenzoyl]-N-[2-(1-methyl-2-pyrrolidinyl)ethyl]-10,11-dihydro-5H-pyrrolo[2,1-c][1,4]benzodiazepine-3-carboxamide], the “V2 % inhibition @ 100 nM” value is reported as 11%.

Still in this experiment, the particulars now being: value in parentheses.
As a reminder, the IC50 is the concentration at which inhibition is half-maximal. In the case of `COc1cc(C2=CCCCC2)c(Cl)cc1C(=O)N1Cc2ccc(C(=O)N3CCC[C@H]3CN3CCCC3)n2Cc2ccccc21` [Example 1, 4-Chloro-5-cyclohex-1-en-1-yl-2-[(3-{[(2S)-2-(pyrrolidin-1-ylmethyl)pyrrolidin-1-yl]carbonyl}-5H-pyrrolo [2,1-c][1,4]benzodiazepin-10(11H)-yl)carbonyl]phenyl methyl ether], the concentration for half-maximal inhibition (IC50) is greater than 3 µM. The same measure, in the same setting: the result for `COc1cc(C2=CCCCC2)c(Cl)cc1C(=O)N1Cc2ccc(C(=O)N(C)CCCN(C)C)n2Cc2ccccc21` [Example 3, 10-(5-Chloro-4-cyclohex-1-en-1-yl-2-methoxybenzoyl)-N-[3-(dimethylamino)propyl]-N-methyl-10,11-dihydro-5H-pyrrolo[2,1-c][1,4]benzodiazepine-3-carboxamide citric acid salt] reads 5.84 µM.
